Results published in US7713994B2 (Wyeth LLC, priority 2005, dated 2010).
pIC50: −log10 of the molar value. Where a name gives a salt, the structure may show the parent alone. Read-outs that look alike come from different tables or passages of the source.

How the values were obtained:
MCF-7 = test: Cytotoxicity assay (SRB), MCF-7; format: cell-based; conditions: Homo sapiens, MCF7, 72 h, MCF-7 cells, SRB, read-out: In Vitro Cellular Activity IC50 MCF-7
Summary of the method: (§1)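 Plate cells, let them attach overnight, add compound dilutions in RPMI 1640/5% FBS, and incubate 3 days (BT474 6 days). Then fix with TCA, stain with SRB, dissolve the dye in Tris and read at 540 nm.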

LoVo = test: Cytotoxicity assay (SRB), LoVo; format: cell-based; conditions: Homo sapiens, LoVo, 72 h, LoVo cells, SRB, read-out: In Vitro Cellular Activity IC50 LOVO
Summary of the method: as §1

BT474 = test: Cytotoxicity assay (SRB), BT474; format: cell-based
Summary of the method: as §1

HCT-116 = test: Cytotoxicity assay (SRB), HCT-116; format: cell-based; conditions: Homo sapiens, HCT-116, 72 h, HCT116 cells, SRB, read-out: In Vitro Cellular Activity IC50 HCT116
Summary of the method: as §1

[1] = Homo sapiens, BT-474, 144 h, BT474 cells, SRB, 6 days; read-out: In Vitro Cellular Activity IC50 BT474
[2] = Homo sapiens, BT-474, 144 h, BT474 cells, 6 days, SRB; read-out: In Vitro Cellular Activity IC50 BT474

C[C@@H]1CN(c2ccc(N/C=C3\C(=O)NC(=O)c4ccc(Br)cc43)cc2F)C[C@H](C)N1 [Example 318, (4Z)-6-Bromo-4-[({4-[(3R,5S)-3,5-dimethylpiperazin-1-yl]-3-fluorophenyl}amino)methylene]isoquinoline-1,3(2H,4H)-dione]
melting point: 168 to 169 °C | pIC50 (MCF-7; three days): 5.60 | pIC50 (LoVo; three days): 5.82 | pIC50 (BT474; [1]): 5.72 | pIC50 (HCT-116; three days): 5.89

O=C1NC(=O)c2ccc(Br)cc2/C1=C/NCCc1c[nH]c2ccccc12 [Example 43, (4Z)-6-Bromo-4-({[2-(1H-indol-3-yl)ethyl]amino}methylene)isoquinoline-1,3(2H,4H)-dione]
melting point: 278 to 280 °C | pIC50 (MCF-7; three days): < 4.30 | pIC50 (LoVo; three days): < 4.30 | pIC50 (BT474; [1]): 4.39 | pIC50 (HCT-116; three days): 4.59

N#Cc1ccc2c(c1)/C(=C/Nc1ccc(CN3CCCCC3)cc1)C(=O)NC2=O [Example 110, (4Z)-1,3-Dioxo-4-({[4-(piperidin-1-ylmethyl)phenyl]amino}methylene)1,2,3,4-tetrahydroisoquinoline-6-carbonitrile]
melting point: 254 to 256 °C (dec.) | pIC50 (MCF-7; three days): 5.24 | pIC50 (LoVo; three days): 5.60 | pIC50 (BT474; [1]): 5.46 | pIC50 (HCT-116; three days): 5.80

O=C1NC(=O)c2ccc(Br)cc2/C1=C/NCc1ccc(NC(=O)C2CC2)c(OC(=O)C2CC2)c1 [Example 185, 5-({[(Z)-(6-Bromo-1,3-dioxo-2,3-dihydroisoquinolin-4(1H)-′cyclopropanecarboxylate ′ylidene)methyl]amino}methyl)-2-[(cyclopropylcarbonyl)amino]phenyl]
melting point: 245 to 246 °C | pIC50 (MCF-7; three days): < 4.30 | pIC50 (LoVo; three days): 5.57 | pIC50 (BT474; [1]): 6.06 | pIC50 (HCT-116; three days): 5.55

Cc1nn(-c2ccc(NC=C3C(=O)NC(=O)c4ccc(Br)cc43)cc2)c(C)c1Cl [Example 348, 6-Bromo-4-{[4-(4-chloro-3,5-dimethyl-pyrazol-1-yl)-phenylamino]-methylene}-4H-isoquinoline-1,3-dione]
melting point: 290 to 291 °C | pIC50 (MCF-7; three days): 5.29 | pIC50 (LoVo; three days): 5.74 | pIC50 (BT474; [1]): 5.21 | pIC50 (HCT-116; three days): 5.59

Cc1ccc(CN/C=C2\C(=O)NC(=O)c3ccc(I)cc32)cc1O [Example 157, (4Z)-4-{[(4-Methyl-3-hydroxybenzyl)amino]methylene}-6-iodoisoquinoline-′1,3(2H,4H)-dione]
melting point: 312 to 313 °C | pIC50 (MCF-7; three days): 5.09 | pIC50 (LoVo; three days): 4.66 | pIC50 (BT474; [1]): 4.72 | pIC50 (HCT-116; three days): 5.17

CC(C)N1CCN(c2ccc(N/C=C3\C(=O)NC(=O)c4ccc(Br)cc43)nc2)CC1 [Example 486, (4Z)-6-Bromo-4-({[5-(4-isopropylpiperazin-1-yl)pyridin-2-yl]amino}methylene)isoquinoline-1,3(2H,4H)-dione]
melting point: 223 to 224 °C | pIC50 (MCF-7; 3 days): 5.00 | pIC50 (LoVo; 3 days): 5.12 | pIC50 (BT474; [2]): 5.44 | pIC50 (HCT-116; 3 days): 5.13

CCCOc1ccc(CN/C=C2\C(=O)NC(=O)c3ccc(Br)cc32)cc1OC(=O)CC [Example 190, 5-({[(Z)-(6-Bromo-1,3-dioxo-2,3-dihydroisoquinolin-4(1H)-ylidene)methyl]amino}-methyl)-2-propoxyphenyl propionate]
melting point: 206 to 207 °C | pIC50 (MCF-7; three days): < 4.30 | pIC50 (LoVo; three days): 4.89 | pIC50 (BT474; [1]): 5.85 | pIC50 (HCT-116; three days): 5.03

CCCOc1ccc(CN/C=C2\C(=O)NC(=O)c3ccc(I)cc32)nc1Br [Example 493, (Z)-4-(((6-Bromo-5-propoxypyridin-2-yl)methylamino)methylene)-6-iodoisoquinoline-1,3(2H,4H)-dione]
melting point: 251 to 253 °C (dec.) | pIC50 (MCF-7; 3 days): 4.99 | pIC50 (LoVo; 3 days): 5.03 | pIC50 (BT474; [2]): 4.96 | pIC50 (HCT-116; 3 days): 5.33

CN1CCN(C(=O)Nc2ccc(N/C=C3\C(=O)NC(=O)c4ccc(Br)cc43)cc2)CC1 [Example 215, N-(4-{[(Z)-(6-Bromo-1,3-dioxo-2,3-dihydroisoquinolin-4(1H)-′ylidene)methyl]amino}phenyl)-4-methylpiperazine-1-carboxamide]
melting point: > 300 °C | pIC50 (MCF-7; three days): 5.15 | pIC50 (LoVo; three days): 5.19 | pIC50 (BT474; [1]): 5.13 | pIC50 (HCT-116; three days): 5.35

CCCOc1ccc(CN/C=C2\C(=O)NC(=O)c3ccc(Br)cc32)cc1OC(=O)OC [Example 191, 5-({[(Z)-(6-Bromo-1,3-dioxo-2,3-dihydroisoquinolin-4(1H)-ylidene)methyl]amino}-methyl)-2-propoxyphenyl methyl carbonate]
melting point: 211 to 212 °C | pIC50 (MCF-7; three days): < 4.30 | pIC50 (LoVo; three days): < 4.30 | pIC50 (BT474; [1]): 5.24 | pIC50 (HCT-116; three days): 4.46

O=C1NC(=O)c2ccc(Br)cc2/C1=C/NCc1ccc2c(c1)OCO2 [Example 109, (4Z)-4-{[(1,3-Benzodioxol-5-ylmethyl)amino]methylene}-6-bromoisoquinoline-1,3(2H,4H)-dione]
melting point: 227 to 228 °C | pIC50 (MCF-7; three days): < 4.30 | pIC50 (LoVo; three days): < 4.30 | pIC50 (BT474; [1]): 4.46 | pIC50 (HCT-116; three days): 4.77

COc1cc2c(cc1Br)/C(=C/Nc1ccc(CN3CCCCC3)cc1)C(=O)NC2=O [Example 252, 6-Bromo-7-methoxy-4-[(4-piperidin-1-ylmethyl-phenylamino)-methylene]-4H-isoquinoline-1,3-dione]
melting point: 264 to 267 °C | pIC50 (MCF-7; three days): 4.48 | pIC50 (LoVo; three days): 4.68 | pIC50 (BT474; [1]): 4.82 | pIC50 (HCT-116; three days): 4.85

O=C1NC(=O)c2ccc(-n3cccc3)cc2/C1=C/Nc1ccc(Br)cn1 [Example 444, (Z)-4-((5-Bromopyridin-2-ylamino)methylene)-6-(1H-pyrrol-1-yl)isoquinoline-1,3(2H,4H)-dione]
melting point: 317 to 318 °C (dec.) | pIC50 (MCF-7; 3 days): 5.05 | pIC50 (LoVo; 3 days): 5.30 | pIC50 (BT474; [2]): 5.28 | pIC50 (HCT-116; 3 days): 5.49

O=C1NC(=O)c2ccc(-c3ccc(Oc4ccccc4)cc3)cc2/C1=C/Nc1ccc(CN2CCCCC2)cc1 [Example 101]
melting point: 132 to 133 °C | pIC50 (MCF-7; three days): 5.49 | pIC50 (LoVo; three days): 5.37 | pIC50 (BT474; [1]): 5.54 | pIC50 (HCT-116; three days): 5.92

CCOC(=O)C1(C(=O)OCC)Oc2ccc(CN/C=C3\C(=O)NC(=O)c4ccc(Br)cc43)cc2O1 [Example 179, (Z)-Diethyl 5-(((6-bromo-1,3-dioxo-2,3-dihydroisoquinolin-4(1H)-ylidene)methylamino)methyl)benzo[d][1,3]dioxole-2,2-dicarboxylate]
melting point: 222 to 223 °C | pIC50 (MCF-7; three days): 4.52 | pIC50 (LoVo; three days): 4.70 | pIC50 (BT474; [1]): 4.77 | pIC50 (HCT-116; three days): 4.47

O=C1NC(=O)c2ccc(Br)cc2/C1=C/NCc1ccc(Cl)cc1 [Example 53, (4Z)-6-Bromo-4-{[(4-chlorobenzyl)amino)methylene}isoquinoline-1,3(2H,4H)-dione]
melting point: 234 to 235 °C | pIC50 (MCF-7; three days): < 4.30 | pIC50 (LoVo; three days): < 4.30 | pIC50 (BT474; [1]): 4.43 | pIC50 (HCT-116; three days): 4.49

O=C1NC(=O)c2ccc(Br)cc2/C1=C/Nc1ccc(CN2CCSC2)cc1 [Example 281, (4Z)-6-Bromo-4-({[4-(1,3-thiazolidin-3-ylmethyl)phenyl]amino}methylene)isoquinoline-1,3(2H,4H)-dione]
melting point: 224 to 225 °C | pIC50 (MCF-7; three days): 4.72 | pIC50 (LoVo; three days): 4.92 | pIC50 (BT474; [1]): 4.35 | pIC50 (HCT-116; three days): 4.70

COc1cccc(-c2ccc3c(c2)/C(=C/Nc2ccc(CN4CCCCC4)cc2)C(=O)NC3=O)c1 (hydrate or solvate) [Example 117, (4Z)-6-(3-Methoxyphenyl)-4-({[4-(piperidin-1-ylmethyl)phenyl]amino}methylene)-isoquinoline-1,3(2H,4H)-dione]
melting point: 169 to 170 °C

CN1CCN(c2ccc(N/C=C3\C(=O)NC(=O)c4ccc(-c5ccc(C=O)o5)cc43)cc2)CC1 (hydrate or solvate) [Example 124, 5-[(4Z)-4-({[4-(4-Methylpiperazin-1-yl)phenyl]amino}methylene)-1,3-dioxo-1,2,3,4-tetrahydroisoquinolin-6-yl]-2-furaldehyde]
melting point: 218 to 220 °C

COc1ccc(CN/C=C2\C(=O)NC(=O)c3ccc(I)cc32)cc1O (as salt: hydrochloride) [Example 80, (4Z)-6-Iodo-4-{[(3-hydroxy-4-methoxybenzyl)amino]methylene}isoquinoline-1,3(2H,4H)-dione]
melting point: 209 to 210 °C

CN1CCN(c2ccc(N/C=C3\C(=O)NC(=O)c4ccc(-c5ccc(F)cc5)cc43)cc2)CC1 (as salt: sodium) [Example 263, (4Z)-6-(4-Fluorophenyl)-4-({[4-(4-methylpiperazin-1-yl)phenyl]amino}methylene)-isoquinoline-1,3(2H,4H)-dione]
melting point: 228 to 229 °C

COc1ccc(CN/C=C2\C(=O)NC(=O)c3ccc(-c4ccsc4)cc32)cc1O (as salt: hydrochloride) [Example 88, (4Z)-4-{[(3-Hydroxy-4-methoxybenzyl)amino]methylene}-6-thien-3-ylisoquinoline-1,3(2H,4H)-dione]
melting point: 219 to 220 °C

O=C1NC(=O)c2ccc(Br)cc2/C1=C/NCc1cccnc1 [Example 30, (4Z)-6-Bromo-4-{[(pyridin-3-ylmethyl)amino]methylene}isoquinoline-1,3(2H,4H)-dione]
melting point: 299 to 300 °C
